Results on 19 molecules are retold here after PubChem BioAssay (NCI).

Structures are written as SMILES. “And” between values parts separate entries of the source, which are not always exact repeats. Identical values can stand only once.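 A five-concentration, 48-hour dose response in 96-well plates underlies each endpoint, interpolated linearly between surrounding concentrations. Abbreviation: GI50, concentration required for 50% inhibition of growth. TGI is the concentration that stops growth completely.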

For the first experiment, the system named is DU-145 prostate. Description: DTP human tumour cell line panel, 48 h.
For orientation: GI50 means the concentration giving 50% growth inhibition. In general, TGI refers to the concentration at which net growth stops. Lower therefore signals greater sensitivity of the cells. `[O]=[V]([OH])([OH])[OH]`: the GI50 was > 100 µM and the TGI was > 100 µM.

Turning to `CNCc1ccc(-c2cc(-c3nc(-c4ccc(S(=O)(=O)C(C)C)cc4)cnc3N)on2)cc1`, the GI50 was 0.798 µM and the TGI amounted to 5.91 µM.

Consider `Cc1cc(Cl)nc(N(CCNc2ccnc3cc(Cl)ccc23)Cc2ccco2)n1`, for which the GI50 was 1.9 µM and the TGI was determined as 3.8 µM.

Consider `S=C1SCN(Cc2ccccc2)CN1Cc1ccco1`, for which the GI50 was 2.85 µM and the TGI came out at 9.61 µM.

For `COc1ccccc1CNCCN1C(=O)c2ccc3c4c(ccc(c24)C1=O)C(=O)N(CCNCc1ccccc1OC)C3=O`, the GI50 was 0.321 µM and the TGI came out at 1.11 µM.

With `CCCCCCCCCCCC[C@@H](O)[C@H]1CC[C@H]([C@H](O)CC[C@H](O)[C@@H]2CC[C@@H](CCCCCCCC3=C[C@H](C)OC3=O)O2)O1`, the GI50 is > 50 µM and the TGI is > 50 µM.

As to `O=C(c1cccs1)c1c(C(F)(F)F)n([O-])c2cc(Cl)c(Cl)cc2[n+]1=O`, the GI50 was 0.872 µM and the TGI was found to be 2.68 µM.

With `CSc1nc2nc(-c3ccccc3)c(C)c-2c2n1C(C)C(=O)N2` (stereo not given), the GI50 was 51.9 µM and the TGI was > 100 µM.

Take `COc1cc(-c2nccc3[nH]c(-c4ccc5cc[nH]c5c4)nc23)cc(OC)c1OC`: the concentration for 50% growth inhibition (GI50) is < 0.01 µM and the concentration for total growth inhibition (TGI) was 11.4 µM.

As to `COc1cc2nnc3c4cccnc4[nH]c3c2cc1OC`, the GI50 was 4.32 µM and 2.1 µM; the TGI was 18.3 µM and 5.11 µM.

Consider `O=C(COc1ccc(/C=C2\Oc3ccccc3C2=O)cc1)Nc1nc2ccccc2s1`, for which the GI50 was 5.59 µM and the TGI was > 100 µM.

`OCC1CC[N-]CC1.OCC1CC[N-]CC1.[Cl][Pt+2]([Cl])([Cl])[Cl]`: the GI50 is 20.8 µM and the TGI came to 61.5 µM.

For the molecule `OCCCCC#Cc1ccccc1C#Cc1cccc(C(F)(F)F)c1`, the GI50 is 15.3 µM and the TGI came to 29.9 µM.

As for `CCCCCC/C=C\CCCCCCCCC(=O)c1cccc(OC)c1OC`, the TGI was > 100 µM.

Another experiment relates to HCC-2998 colon. The experiment is described as follows: DTP human tumour cell line panel, 48 h.
`[O]=[V]([OH])([OH])[OH]`: the GI50 was > 100 µM and the TGI is > 100 µM.

Take `CNCc1ccc(-c2cc(-c3nc(-c4ccc(S(=O)(=O)C(C)C)cc4)cnc3N)on2)cc1`: the GI50 was 2.48 µM and the TGI amounted to 19.6 µM.

For the molecule `Cc1cc(Cl)nc(N(CCNc2ccnc3cc(Cl)ccc23)Cc2ccco2)n1`, the GI50 is 2.03 µM and the TGI was determined as 4.22 µM.

On to `S=C1SCN(Cc2ccccc2)CN1Cc1ccco1`, for which the GI50 was 16.6 µM and the concentration for total growth inhibition (TGI) is 34.1 µM.

Consider `COc1ccccc1CNCCN1C(=O)c2ccc3c4c(ccc(c24)C1=O)C(=O)N(CCNCc1ccccc1OC)C3=O`, for which the GI50 was 0.182 µM and the TGI was 0.354 µM.

`CCCCCCCCCCCC[C@@H](O)[C@H]1CC[C@H]([C@H](O)CC[C@H](O)[C@@H]2CC[C@@H](CCCCCCCC3=C[C@H](C)OC3=O)O2)O1`: the TGI is > 50 µM.

Consider `O=C(c1cccs1)c1c(C(F)(F)F)n([O-])c2cc(Cl)c(Cl)cc2[n+]1=O`, for which the GI50 is 1.5 µM and the TGI turned out to be 2.86 µM.

For `CSc1nc2nc(-c3ccccc3)c(C)c-2c2n1C(C)C(=O)N2` (stereo not given), the GI50 was 88.6 µM and the TGI is > 100 µM.

Turning to `COc1cc(-c2nccc3[nH]c(-c4ccc5cc[nH]c5c4)nc23)cc(OC)c1OC`, the GI50 was < 0.01 µM and the TGI was found to be 1.43 µM.

As to `COc1cc2nnc3c4cccnc4[nH]c3c2cc1OC`, the GI50 is 2.28 µM and 1.95 µM; the TGI is 13.6 µM and 3.79 µM.

For the molecule `OC(c1ccccc1Br)(c1ccccc1Br)C(F)(F)F`, the TGI amounted to 6.58 µM.

Take `O=C(COc1ccc(/C=C2\Oc3ccccc3C2=O)cc1)Nc1nc2ccccc2s1`: the GI50 was 33.1 µM and the TGI is > 100 µM.

Consider `CCc1cccc(CC)c1NC(=O)/C(Cl)=C(/Cl)C(=O)O`, for which the TGI was > 75.9 µM.

Consider `OCC1CC[N-]CC1.OCC1CC[N-]CC1.[Cl][Pt+2]([Cl])([Cl])[Cl]`, for which the GI50 was 35.4 µM.

Consider `CC(=O)OCC(=O)[C@@]1(O)CC[C@H]2[C@@H]3C[C@H](C)C4=CC(=O)C=C[C@]4(C)[C@@]3(F)[C@@H](O)C[C@@]21C`, for which the TGI was > 100 µM.

For `OCCCCC#Cc1ccccc1C#Cc1cccc(C(F)(F)F)c1`, the GI50 was 17.7 µM and the concentration for total growth inhibition (TGI) was 32.3 µM.

With `COc1cc(/C=C/c2csnn2)cc(OC)c1OC`, the TGI was > 100 µM.

`CCCCCC/C=C\CCCCCCCCC(=O)c1cccc(OC)c1OC`: the TGI was > 100 µM.

For the molecule `N#CC1CC(c2ccccc2)Nc2cc(Cl)ccc2N1` (stereo not given), the concentration for total growth inhibition (TGI) was > 100 µM.

A further experiment deals with MOLT-4 leukemia. Description: DTP human tumour cell line panel, 48 h.
For `[O]=[V]([OH])([OH])[OH]`, the GI50 was > 100 µM and the total growth inhibition concentration (TGI) was > 100 µM.

With `CNCc1ccc(-c2cc(-c3nc(-c4ccc(S(=O)(=O)C(C)C)cc4)cnc3N)on2)cc1`, the GI50 is 0.376 µM and the TGI stood at 3.07 µM.

With `Cc1cc(Cl)nc(N(CCNc2ccnc3cc(Cl)ccc23)Cc2ccco2)n1`, the GI50 is 2.09 µM and the TGI came out at 4.65 µM.

Consider `S=C1SCN(Cc2ccccc2)CN1Cc1ccco1`, for which the GI50 was 5.91 µM and the TGI amounted to 76 µM.

In the case of `COc1ccccc1CNCCN1C(=O)c2ccc3c4c(ccc(c24)C1=O)C(=O)N(CCNCc1ccccc1OC)C3=O`, the concentration for 50% growth inhibition (GI50) is 0.252 µM and the TGI turned out to be 0.65 µM.

Take `CCCCCCCCCCCC[C@@H](O)[C@H]1CC[C@H]([C@H](O)CC[C@H](O)[C@@H]2CC[C@@H](CCCCCCCC3=C[C@H](C)OC3=O)O2)O1`: the GI50 was 2.55 µM and the TGI is > 50 µM.

Consider `O=C(c1cccs1)c1c(C(F)(F)F)n([O-])c2cc(Cl)c(Cl)cc2[n+]1=O`, for which the TGI is > 100 µM.
